Test results reported in patent US20040116529A1, “Anticancer and chemopreventative agents and methods of use thereof” (priority 2001, published 2004).

Key:
[1] = tested on: prostate specific antigen (PSA); assay: Intracellular PSA levels in LNCaP cells exposed to DBM (Western analysis); assay type: cell-based, human
Source text: (§1) LNCaP cells cultured in the presence of androgens secrete prostate specific antigen (PSA) into the culture medium.

[2] = tested on: prostate specific antigen (PSA); assay: Extracellular PSA secreted by LNCaP cells exposed to DBM (ELISA analysis); assay type: cell-based, human; conditions: baseline about 700
Source text: as §1

[3] = tested on: TRAMP (TRansgenic Adenocarcinoma of Mouse Prostate) mice; assay: Prostate carcinogenesis in TRAMP mice fed 1% DBM diet; assay type: in vivo
Source text: In other words, development of premalignant prostatic intraepithelial (PIN) neoplasia and primary adenocarcinoma of the prostate of TRAMP mice is similar to the development of prostate cancer in humans. TRAMP mice are discussed in greater detail in U.S. Pat. No. 5,907,087, which is incorporated herein by reference.
(§2) Two groups of TRAMP mice were studied, where one is a control cohort and the other is the cohort fed DBM.

[4] = Serum DBM levels in TRAMP mice fed 1% DBM diet; assay type: in vivo, mouse
Source text: as §2

[5] = tested on: human prostate cancer cells; assay: Proliferation of human prostate cancer cells in vitro; assay type: cell-based

O=C(CC(=O)c1ccccc1)c1ccccc1 [DBM, dibenzoylmethane]
DBM concentration at which intracellular PSA is not readily detectable by Western analysis [1]: ≥ 10 µM | PSA levels ([1]; DBM at 10, 25 and 50 micromolar): dose-dependent down regulation | Extracellular PSA ([2]; 25 micromolar DBM): ~150 nanograms per milliliter | Extracellular PSA ([2]; 50 micromolar DBM): ~100 nanograms per milliliter | Extracellular PSA ([2]; at micromolar DBM (concentration not given)): approximately 200 nanograms per milliliter | cancer and high-grade prostatic intraepithelial neoplasia versus control cohort ([3]; 1% DBM diet, at 18 weeks): significantly less cancer and high-grade prostatic intraepithelial neoplasia | mice developing either adenocarcinoma or high grade PIN ([3]; diet of 1% DBM (weight/weight) in AIN-76A from six weeks of age, control cohort 6 of 10): 2 of 11 | serum levels of DBM ([4]; diet of 1% DBM from six weeks of age): 1000 nM | oral absorption from the gastrointestinal tract ([4]; oral DBM in diet): orally bioavailable | proliferation of human prostate cancer cells in vitro [5]: inhibit proliferation
